Key:
human TLR8 = target: T1, human TLR8 (Homo sapiens, UniProt Q9NR97); assay: HEK Reporter Assay, HEK293 NFKB reporter cells expressing human TLR8; type: cell-based; conditions: read-out: HEK293 hTLR8 EC50
T1 construct: host or cells: HEK293 NF-kB reporter cells
T1 sequence (Q9NR97 27-1041): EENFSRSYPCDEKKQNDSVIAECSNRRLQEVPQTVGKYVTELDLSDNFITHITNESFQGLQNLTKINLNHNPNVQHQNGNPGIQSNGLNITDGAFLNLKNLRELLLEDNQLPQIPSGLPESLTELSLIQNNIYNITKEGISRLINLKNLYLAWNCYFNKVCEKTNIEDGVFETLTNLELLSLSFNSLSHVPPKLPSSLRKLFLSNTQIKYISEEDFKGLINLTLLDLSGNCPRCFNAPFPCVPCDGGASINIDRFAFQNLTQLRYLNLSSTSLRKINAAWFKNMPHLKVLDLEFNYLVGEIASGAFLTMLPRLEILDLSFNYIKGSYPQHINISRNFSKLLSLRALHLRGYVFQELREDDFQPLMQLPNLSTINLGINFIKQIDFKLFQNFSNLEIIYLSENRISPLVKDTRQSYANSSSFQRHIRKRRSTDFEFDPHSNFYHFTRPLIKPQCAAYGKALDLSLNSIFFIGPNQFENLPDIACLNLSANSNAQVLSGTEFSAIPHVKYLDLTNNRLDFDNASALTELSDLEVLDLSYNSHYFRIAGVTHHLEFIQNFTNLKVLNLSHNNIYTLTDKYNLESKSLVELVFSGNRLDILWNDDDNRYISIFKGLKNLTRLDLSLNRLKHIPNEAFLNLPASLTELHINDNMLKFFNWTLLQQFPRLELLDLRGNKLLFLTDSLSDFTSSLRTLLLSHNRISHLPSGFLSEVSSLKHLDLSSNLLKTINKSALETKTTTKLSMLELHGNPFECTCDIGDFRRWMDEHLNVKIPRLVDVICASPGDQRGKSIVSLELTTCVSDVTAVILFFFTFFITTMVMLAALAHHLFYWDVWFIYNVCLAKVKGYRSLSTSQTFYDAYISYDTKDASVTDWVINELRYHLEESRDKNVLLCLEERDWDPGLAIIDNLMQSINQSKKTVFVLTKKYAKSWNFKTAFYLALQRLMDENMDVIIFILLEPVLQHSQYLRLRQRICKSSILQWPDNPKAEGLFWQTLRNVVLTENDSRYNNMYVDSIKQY
Method: (§1) Each compound was synthesized, purified, and characterized by mass spectrometry and shown to have the mass indicated. Additional experimental procedures are found in the Examples. Activity against Human Embryonic Kidney (HEK) 293 NFKB reporter cells expressing human TLR7 or human TLR8 was measured according to Example 202.
(§2) Human Embryonic Kidney (HEK293) reporter cells expressing human TLR7 or human TLR8 (InvivoGen, San Diego Calif.), were used with vendor protocols for cellular propagation and experimentation. Briefly, cells were grown to 80-85% confluence at 5% CO2 in DMEM supplemented with 10% FBS, ZEOCIN™, and Blasticidin. Cells were then seeded in 96-well flat plates at 4×10^4 cells/well with substrate containing HEK detection medium and immunostimulatory molecules.

human TLR7 = target: T2, human TLR7 (Homo sapiens, UniProt Q9NYK1); assay: HEK Reporter Assay, HEK293 NFKB reporter cells expressing human TLR7; type: cell-based; conditions: read-out: HEK293 hTLR7 EC50
T2 construct: host or cells: HEK293 NF-kB reporter cells
T2 sequence (Q9NYK1 27-1049): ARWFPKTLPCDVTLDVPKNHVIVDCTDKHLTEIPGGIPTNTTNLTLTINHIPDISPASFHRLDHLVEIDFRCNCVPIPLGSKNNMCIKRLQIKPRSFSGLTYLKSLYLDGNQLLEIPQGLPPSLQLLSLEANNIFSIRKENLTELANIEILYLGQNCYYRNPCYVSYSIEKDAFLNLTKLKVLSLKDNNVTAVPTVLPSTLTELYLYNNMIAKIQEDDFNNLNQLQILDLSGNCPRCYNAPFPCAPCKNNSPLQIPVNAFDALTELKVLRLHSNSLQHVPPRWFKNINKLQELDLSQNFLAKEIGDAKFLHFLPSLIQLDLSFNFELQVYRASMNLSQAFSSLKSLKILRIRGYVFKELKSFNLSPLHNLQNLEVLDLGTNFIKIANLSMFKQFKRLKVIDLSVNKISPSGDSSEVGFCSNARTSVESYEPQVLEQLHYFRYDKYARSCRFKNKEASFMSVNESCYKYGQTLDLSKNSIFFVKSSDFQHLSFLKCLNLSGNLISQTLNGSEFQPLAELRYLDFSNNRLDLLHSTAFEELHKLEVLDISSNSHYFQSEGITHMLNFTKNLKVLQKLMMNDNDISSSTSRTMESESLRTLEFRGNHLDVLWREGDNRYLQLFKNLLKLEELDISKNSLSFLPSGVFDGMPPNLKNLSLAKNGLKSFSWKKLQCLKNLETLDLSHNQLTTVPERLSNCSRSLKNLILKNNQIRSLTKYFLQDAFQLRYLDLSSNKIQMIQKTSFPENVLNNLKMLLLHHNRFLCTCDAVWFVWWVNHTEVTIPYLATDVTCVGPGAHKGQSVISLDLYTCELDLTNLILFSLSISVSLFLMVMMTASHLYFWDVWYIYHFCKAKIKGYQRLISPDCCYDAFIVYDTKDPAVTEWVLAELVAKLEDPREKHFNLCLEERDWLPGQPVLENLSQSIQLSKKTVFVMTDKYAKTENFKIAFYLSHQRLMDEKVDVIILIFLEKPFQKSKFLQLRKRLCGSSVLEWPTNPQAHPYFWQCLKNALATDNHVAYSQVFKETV
Method: as §1, §2

SMILES | EC50 (human TLR8) | EC50 (human TLR7)
CCCN(CCCNC(=O)OC1CCC1)C(=O)C1=Cc2ccc(-c3cnc(CN)nc3)cc2N=C(N)C1 [HxBz-13, cyclobutyl N-[3-[[2-amino-8-[2-(aminomethyl)pyrimidin-5-yl]-3H-1-benzazepine-4-carbonyl]-propyl-amino]propyl]carbamate] | 274 nM | 242 nM
CCCN(OCC(C)C)C(=O)C1=Cc2ccc(-c3cnc(CN)nc3)cc2N=C(N)C1 [HxBz-31] | 358 nM | 763 nM
CCCN(CCCNC(=O)OC1CCC1)C(=O)C1=Cc2ccc(-c3cncc(S(=O)(=O)N4CC(CN)C4)c3)cc2N=C(N)C1 [HxBz-32, cyclobutyl N-[3-[[2-amino-8-[5-[3-(aminomethyl)azetidin-1-yl]sulfonyl-3-pyridyl]-3H-1-benzazepine-4-carbonyl]-propyl-amino]propyl]carbamate] | 1520 nM | 1280 nM
CCCN(OC(C)C)C(=O)C1=Cc2ccc(-c3cnc(CN)nc3)cc2N=C(N)C1 [HxBz-30] | 40 nM | 393 nM

Second part, the compound after the results:

EC50 (human TLR8) | EC50 (human TLR7) | SMILES
174 nM | 684 nM | CCCN(OCCNC(=O)OC(C)C)C(=O)C1=Cc2ccc(-c3cncc(S(=O)(=O)N4CC(CN)C4)c3)cc2N=C(N)C1 [HxBz-35]
54 nM | 439 nM | CCCN(OCC)C(=O)C1=Cc2ccc(-c3ccc(CN)nc3)cc2N=C(N)C1 [HxBz-36, 2-amino-8-[6-(aminomethyl)-3-pyridyl]-N-ethoxy-N-propyl-3H-1-benzazepine-4-carboxamide]
12 nM | 35 nM | CCCN(OCCNC(=O)OC1CCC1)C(=O)C1=Cc2ccc(-c3ccc(CN)nc3)cc2N=C(N)C1 [HxBz-47]
65 nM | 1780 nM | CCCN(OCC)C(=O)C1=Cc2ccc(-c3cncc(CN)c3)cc2N=C(N)C1 [HxBz-39, 2-amino-8-(5-(aminomethyl)pyridin-3-yl)-N-ethoxy-N-propyl-3H-benzo[b]azepine-4-carboxamide]

Source: patent US20220195066A1, “ANTI-CEA IMMUNOCONJUGATES, AND USES THEREOF” (BOLT BIOTHERAPEUTICS, INC., priority 2020, published 2022)
